Laboratory results from ChEMBL document CHEMBL1135281, “Solid-phase synthesis and pharmacological evaluation of analogues of PhTX-12-A potent and selective nicotinic acetylcholine receptor antagonist” (Bioorg Med Chem Lett, 2002).

Assays:
[1] = target: T1, Acetylcholine receptor subunit delta (Homo sapiens, UniProt Q07001); assay: Compound was evaluated for inhibitory activity against human embryonic muscle type Nicotinic acetylcholine receptor specifically delta-subunit expressed in TE-671 cell (at holding potential -100 mV); type: cell-based
[2] = target: T1, Acetylcholine receptor subunit delta; assay: Compound was evaluated for inhibitory activity against human embryonic muscle type Nicotinic acetylcholine receptor specifically delta-subunit expressed in TE-671 cell (at holding potential -50 mV); type: cell-based

T1 sequence (Q07001 whole entry): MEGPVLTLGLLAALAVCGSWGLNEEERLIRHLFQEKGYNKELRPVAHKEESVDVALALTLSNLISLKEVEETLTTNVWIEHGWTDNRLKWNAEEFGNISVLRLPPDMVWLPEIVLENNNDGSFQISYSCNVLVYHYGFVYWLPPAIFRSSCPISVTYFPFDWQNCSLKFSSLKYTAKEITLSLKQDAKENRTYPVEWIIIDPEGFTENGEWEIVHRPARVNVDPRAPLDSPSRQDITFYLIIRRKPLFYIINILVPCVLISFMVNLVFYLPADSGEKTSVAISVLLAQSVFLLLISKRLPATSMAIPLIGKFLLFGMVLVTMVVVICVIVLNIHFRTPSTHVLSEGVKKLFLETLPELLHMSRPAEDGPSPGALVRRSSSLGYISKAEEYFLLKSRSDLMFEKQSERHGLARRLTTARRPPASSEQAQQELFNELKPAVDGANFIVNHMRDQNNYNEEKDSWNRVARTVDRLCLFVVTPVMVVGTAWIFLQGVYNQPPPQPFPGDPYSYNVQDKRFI

Structure (SMILES) | IC50 [1] [µM] | IC50 [2] [µM]
CCCC(=O)N[C@@H](Cc1ccc(O)cc1)C(=O)NCCCCCCCCCCCCN | 0.93 | 1.53
CCCC(=O)N[C@@H](Cc1ccc(O)cc1)C(=O)NCCCCCCCCCCCN | 0.46 | 0.58
CCCC(=O)N[C@@H](Cc1ccc(O)cc1)C(=O)NCCCCCCCN | 5.44 | 10.5
CCCC(=O)N[C@@H](Cc1ccc(O)cc1)C(=O)NCCCCCCCCN | 5.03 | 9.76
CCCC(=O)N[C@@H](Cc1ccc(O)cc1)C(=O)NCCCCCCCCCCN | ~10 | 8.66
CCCC(=O)N[C@@H](Cc1ccc(O)cc1)C(=O)NCCCCCCCCCN | 15.1 | 13.3
CCCC(=O)N[C@@H](Cc1ccc(O)cc1)C(=O)NCCCNCCCCNCCCN [PHILANTHOTOXIN 343] | 75 | –
